According to publication PMC4891657, “Orexin 2 Receptor Antagonism is Sufficient to Promote NREM and REM Sleep from Mouse to Man” (Scientific Reports, 2016):

Legend:
OX1R = molecular target: T1, OX1R (Macaca mulatta, UniProt F7FE63); test: Radio-ligand displacement binding, CHO-K1 membranes, rhesus OX1R; design: species or system rhesus monkey; conditions: read-out: OX1R affinity (Ki)
T1 sequence (F7FE63 1-425): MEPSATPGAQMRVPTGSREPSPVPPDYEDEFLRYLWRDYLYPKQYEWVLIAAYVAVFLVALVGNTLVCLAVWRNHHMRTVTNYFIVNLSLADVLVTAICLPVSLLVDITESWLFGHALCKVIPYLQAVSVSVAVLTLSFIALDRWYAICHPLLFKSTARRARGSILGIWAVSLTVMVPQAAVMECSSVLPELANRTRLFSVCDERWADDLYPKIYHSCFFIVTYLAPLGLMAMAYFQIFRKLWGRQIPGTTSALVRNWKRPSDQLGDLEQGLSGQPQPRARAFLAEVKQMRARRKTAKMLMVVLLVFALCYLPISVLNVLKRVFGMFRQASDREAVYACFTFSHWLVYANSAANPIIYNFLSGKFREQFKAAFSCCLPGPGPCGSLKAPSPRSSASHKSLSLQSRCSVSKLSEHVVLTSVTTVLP
Method: (§1) MK-1064 was evaluated for its ability to inhibit orexin-peptide-A-induced calcium mobilization in CHO cell lines separately expressing OX1R and OX2R from mice, rats, rabbits, dogs, rhesus monkeys and humans.
(§2) Binding and functional blockade of OX1R and OX2R with MK-1064 relative to other 2-SORAs and the DORA, MK-6096, were assessed using membranes from Chinese hamster ovary (CHO)-K1 cells (American Type Tissue Collection, Manassas, VA) transfected to express human, mouse, rat, rabbit, dog, or rhesus monkey OX1R or OX2R receptors, as described previously. The kinetics of binding to human OX2R was assessed by radioligand displacement on CHO-K1 cells expressing the receptor. […] The ON rate analysis was performed by presoaking GF/B filters in 0.3% polyethyleneimine (Sigma) using a Skatron 12-well cell harvester and cold buffer at the indicated time points after addition. For OFF rate determination, binding reactions were allowed to proceed to equilibrium and terminated with 1000x [Kd] of unlabeled antagonist and filtered as above at pre-determined time points. Ultima Gold^TM (PerkinElmer 6013327) scintillation cocktail was added to each filter disc and counted on a PerkinElmer TriCarb 2910 scintillation counter. Data were analyzed using GraphPad® Prism v 6.04 (San Diego, CA, USA). The KON rate was determined according to the equation, KON = (KOBS − KOFF)/[ligand].

OX2R [1] = molecular target: T2, OX2R (Mus musculus, UniProt P58308); test: Radio-ligand displacement binding, CHO-K1 membranes, mouse OX2R; conditions: for fold OX2R selectivity (Ki): OX1R Ki / OX2R Ki; for Ki: read-out: OX2R affinity (Ki)
T2 construct: expressed in transfected cells; host or cells: CHO-K1
T2 sequence (P58308 1-460): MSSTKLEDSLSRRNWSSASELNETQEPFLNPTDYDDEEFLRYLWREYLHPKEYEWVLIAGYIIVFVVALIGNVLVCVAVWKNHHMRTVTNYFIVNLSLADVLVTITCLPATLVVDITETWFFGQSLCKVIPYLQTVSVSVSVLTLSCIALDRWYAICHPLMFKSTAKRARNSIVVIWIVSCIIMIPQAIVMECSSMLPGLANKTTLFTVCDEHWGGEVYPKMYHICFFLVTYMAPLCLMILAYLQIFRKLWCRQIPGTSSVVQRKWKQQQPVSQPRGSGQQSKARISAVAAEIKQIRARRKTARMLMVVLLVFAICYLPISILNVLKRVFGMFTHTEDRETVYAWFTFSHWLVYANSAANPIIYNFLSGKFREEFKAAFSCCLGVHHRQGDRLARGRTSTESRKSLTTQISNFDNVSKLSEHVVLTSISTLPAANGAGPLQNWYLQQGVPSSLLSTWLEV
Method: as §1, §2

OX2R [2] = molecular target: T3, OX2R (Oryctolagus cuniculus, UniProt G1STQ8); test: Radio-ligand displacement binding, CHO-K1 membranes, rabbit OX2R; conditions: for fold OX2R selectivity (Ki): OX1R Ki / OX2R Ki; for Ki: read-out: OX2R affinity (Ki)
T3 sequence (G1STQ8 1-444): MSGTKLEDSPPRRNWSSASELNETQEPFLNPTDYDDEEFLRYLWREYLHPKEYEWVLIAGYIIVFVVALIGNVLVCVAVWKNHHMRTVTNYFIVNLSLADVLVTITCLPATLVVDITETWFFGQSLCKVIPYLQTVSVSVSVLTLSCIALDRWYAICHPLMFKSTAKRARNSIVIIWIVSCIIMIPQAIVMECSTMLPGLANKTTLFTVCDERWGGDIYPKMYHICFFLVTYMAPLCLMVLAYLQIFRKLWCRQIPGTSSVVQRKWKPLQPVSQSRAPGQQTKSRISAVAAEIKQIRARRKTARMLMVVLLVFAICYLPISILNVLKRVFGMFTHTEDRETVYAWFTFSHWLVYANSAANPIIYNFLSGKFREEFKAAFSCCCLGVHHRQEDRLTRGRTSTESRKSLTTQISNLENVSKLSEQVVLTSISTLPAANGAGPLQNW
Method: as §1, §2

OX2R [3] = molecular target: T4, OX2R (Homo sapiens, UniProt O43614); test: hOX2R binding kinetics (3H-labelled ligand, ON and OFF rate); design: expressed in transfected cells; host or cells: CHO-K1; conditions: for hOX2R binding kinetics KON: KON = (KOBS − KOFF)/[ligand]; for Kd / hOX2R binding kinetics KOFF / hOX2R binding kinetics T1/2OFF / hOX2R binding kinetics T1/2ON: room temperature, pH 7.4
T4 sequence (O43614 1-444): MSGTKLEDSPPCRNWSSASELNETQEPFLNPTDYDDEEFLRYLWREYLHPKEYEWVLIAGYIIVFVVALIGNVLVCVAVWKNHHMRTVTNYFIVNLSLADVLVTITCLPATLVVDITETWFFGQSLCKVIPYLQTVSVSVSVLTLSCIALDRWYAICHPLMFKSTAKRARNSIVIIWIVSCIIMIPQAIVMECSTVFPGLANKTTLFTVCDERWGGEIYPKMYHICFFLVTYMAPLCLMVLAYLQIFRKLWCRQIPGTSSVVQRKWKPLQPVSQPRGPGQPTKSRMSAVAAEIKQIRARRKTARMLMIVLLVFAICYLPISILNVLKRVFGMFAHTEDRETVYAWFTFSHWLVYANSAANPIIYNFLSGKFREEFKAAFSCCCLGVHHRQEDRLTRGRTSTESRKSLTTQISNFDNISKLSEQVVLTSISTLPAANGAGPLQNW
Method: as §2

SMILES | Ki (OX1R) | fold OX2R selectivity (Ki) (OX2R [1]) | Ki (OX2R [1]) | fold OX2R selectivity (Ki) (OX2R [2]) | Ki (OX2R [2]) | hOX2R binding kinetics KON (OX2R [3]) | Kd (OX2R [3]) | hOX2R binding kinetics KOFF (OX2R [3]) | hOX2R binding kinetics T1/2OFF (OX2R [3]) | hOX2R binding kinetics T1/2ON (OX2R [3])
COc1ccc(CNC(=O)c2cc(-c3cncc(C)c3)ncc2-c2ccccc2)nc1OC [2-SORA-7] | 1340 nM | [2040] fold | 0.83 nM | [9986] fold | 0.44 nM |  |  |  |  | 
COc1ccc(CNC(=O)c2cc(-c3cc(Cl)cc(Cl)c3)cnc2-c2cccnc2)cc1OC [2-SORA-18] | 132 nM | [653] fold | 0.15 nM | [2410] fold | 0.1 nM |  |  |  |  | 
COc1ccc(CNC(=O)c2cc(-c3cncc(Cl)c3)cnc2-c2ccccn2)nc1OC [MK-1064, 5″-chloro-N-[(5,6-dimethoxypyridin-2-yl)methyl]-2,2′:5′, 3″-terpyridine-3′-carbo xamide] | 815 nM | [1136] fold | 1.02 nM | [4780] fold | 0.51 nM | 1.19e+07 min⁻¹ | 0.51 nM | 0.00697 mol⁻¹ min⁻¹ | 110 min | 21.1 min
COc1ccc(CNC(=O)c2cc(-c3cncc(C)c3)ncc2-c2nccs2)nc1OC [MK-3697] | 2180 nM |  | 1.47 nM |  | 1.01 nM |  | 1.16 nM |  | 54.4 min | 24.3 min
Cc1ccc(-c2ncccn2)c(C(=O)N2C[C@H](COc3ccc(F)cn3)CC[C@H]2C)c1 [MK-6096] | 12.5 nM | [5.2] fold | 0.56 nM | [9.3] fold | 0.28 nM | 9.19e+06 min⁻¹ | 0.34 nM | 0.0188 mol⁻¹ min⁻¹ | 118.3 min | 62.9 min
